Experimental data reported in PubChem BioAssay AID2060511 (Molecular Pharmacology Branch, DTP, NCI, 2025).

Tested on: 422866-222-R5-J1-PDC spheroids with HUVEC/MSC, viability
Assay: Anticancer human tumor 422866-222-R5-J1-PDC patient-derived pancreatic adenocarcinoma cell line growth inhibition [GQUAD]
Conditions: for IC50: curve of first compound; for viability, T/C: stronger effect = lower value
Method in brief: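 Multi-cell-type spheroids of tumor cells with HUVEC and mesenchymal stem cells, treated with drug combinations. Concentrations descend in half-log steps from near clinical Cmax, or from 10 microM where Cmax is unknown; viability read-out.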

[1] = second compound 0.0316 µM, first compound 0.000999 µM
[2] = second compound 0.0316 µM, first compound 0.00316 µM
[3] = second compound 0.0316 µM, first compound 0.00999 µM
[4] = second compound 0.0316 µM, first compound 0.0316 µM
[5] = second compound 0.0316 µM, first compound 0.0999 µM
[6] = second compound 0.0316 µM, first compound 0.316 µM
[7] = second compound 0.1 µM, first compound 0.000999 µM
[8] = second compound 0.1 µM, first compound 0.00316 µM
[9] = second compound 0.1 µM, first compound 0.00999 µM
[10] = second compound 0.1 µM, first compound 0.0316 µM
[11] = second compound 0.1 µM, first compound 0.0999 µM
[12] = second compound 0.1 µM, first compound 0.316 µM
[13] = second compound 0.316 µM, first compound 0.000999 µM
[14] = second compound 0.316 µM, first compound 0.00316 µM
[15] = second compound 0.316 µM, first compound 0.00999 µM
[16] = second compound 0.316 µM, first compound 0.0316 µM
[17] = second compound 0.316 µM, first compound 0.0999 µM
[18] = second compound 0.316 µM, first compound 0.316 µM
[19] = second compound 1 µM, first compound 0.000999 µM
[20] = second compound 1 µM, first compound 0.00316 µM
[21] = second compound 1 µM, first compound 0.00999 µM
[22] = second compound 1 µM, first compound 0.0316 µM
[23] = second compound 1 µM, first compound 0.0999 µM
[24] = second compound 1 µM, first compound 0.316 µM
[25] = second compound 3.16 µM, first compound 0.000999 µM
[26] = second compound 3.16 µM, first compound 0.00316 µM
[27] = second compound 3.16 µM, first compound 0.00999 µM
[28] = second compound 3.16 µM, first compound 0.0316 µM
[29] = second compound 3.16 µM, first compound 0.0999 µM
[30] = second compound 3.16 µM, first compound 0.316 µM
[31] = second compound 10 µM, first compound 0.000999 µM
[32] = second compound 10 µM, first compound 0.00316 µM
[33] = second compound 10 µM, first compound 0.00999 µM
[34] = second compound 10 µM, first compound 0.0316 µM
[35] = second compound 10 µM, first compound 0.0999 µM
[36] = second compound 10 µM, first compound 0.316 µM
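Note: spheroids exposed to compounds for seven days before reading.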
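Throughout, for viability, T/C: percent viability relative to DMSO vehicle control taken as 100%.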

CC[C@@]1(O)C(=O)OCc2c1cc1n(c2=O)Cc2cc3c(CN(C)C)c(O)ccc3nc2-1 + Cc1cnc(CNC(=O)c2c(=O)c3ccc(N4CCCN(C)CC4)nc3n3c2sc2ccccc23)cn1
IC50 (second compound 0.0316 µM): 191 nM
IC50 (second compound 0.1 µM): > 316 nM
IC50 (second compound 0.316 µM): > 316 nM
IC50 (second compound 1 µM): > 316 nM
IC50 (second compound 3.16 µM): > 316 nM
IC50 (second compound 10 µM): > 316 nM
viability, T/C [1]: 97.1%
viability, T/C [2]: 92.6%
viability, T/C [3]: 94%
viability, T/C [4]: 77.1%
viability, T/C [5]: 51.4%
viability, T/C [6]: 48.9%
viability, T/C [7]: 95.8%
viability, T/C [8]: 86.8%
viability, T/C [9]: 82.8%
viability, T/C [10]: 70.8%
viability, T/C [11]: 69.6%
viability, T/C [12]: 56.2%
viability, T/C [13]: 89.2%
viability, T/C [14]: 85%
viability, T/C [15]: 87.3%
viability, T/C [16]: 80.6%
viability, T/C [17]: 80.9%
viability, T/C [18]: 58.6%
viability, T/C [19]: 78.6%
viability, T/C [20]: 81.4%
viability, T/C [21]: 76.5%
viability, T/C [22]: 81.4%
viability, T/C [23]: 83.6%
viability, T/C [24]: 74.9%
viability, T/C [25]: 79.7%
viability, T/C [26]: 80.8%
viability, T/C [27]: 83.8%
viability, T/C [28]: 81.5%
viability, T/C [29]: 90.9%
viability, T/C [30]: 74.6%
viability, T/C [31]: 82.6%
viability, T/C [32]: 88.7%
viability, T/C [33]: 81.1%
viability, T/C [34]: 83.2%
viability, T/C [35]: 88.4%
viability, T/C [36]: 60.6%

C#Cc1c(F)ccc2cc(O)cc(-c3ncc4c(N5CC6CCC(C5)N6)nc(OCC56CCCN5CC(F)C6)nc4c3F)c12 (stereo not drawn) + Cc1cnc(CNC(=O)c2c(=O)c3ccc(N4CCCN(C)CC4)nc3n3c2sc2ccccc23)cn1
IC50 (second compound 0.0316 µM): 1760 nM
IC50 (second compound 0.1 µM): 1410 nM
IC50 (second compound 0.316 µM): 3220 nM
IC50 (second compound 1 µM): 3460 nM
IC50 (second compound 3.16 µM): 2320 nM
IC50 (second compound 10 µM): 1360 nM
viability, T/C [4]: 95.9%
viability, T/C (second compound 0.0316 µM, first compound 0.1 µM): 87%
viability, T/C [6]: 72%
viability, T/C (second compound 0.0316 µM, first compound 1 µM): 57.1%
viability, T/C (second compound 0.0316 µM, first compound 3.16 µM): 43%
viability, T/C (second compound 0.0316 µM, first compound 10 µM): 29.5%
viability, T/C [10]: 98.4%
viability, T/C (second compound 0.1 µM, first compound 0.1 µM): 97.9%
viability, T/C [12]: 69.7%
viability, T/C (second compound 0.1 µM, first compound 1 µM): 55.3%
viability, T/C (second compound 0.1 µM, first compound 3.16 µM): 42.5%
viability, T/C (second compound 0.1 µM, first compound 10 µM): 30.7%
viability, T/C [16]: 97%
viability, T/C (second compound 0.316 µM, first compound 0.1 µM): 79.4%
viability, T/C [18]: 75.4%
viability, T/C (second compound 0.316 µM, first compound 1 µM): 65.6%
viability, T/C (second compound 0.316 µM, first compound 3.16 µM): 49.8%
viability, T/C (second compound 0.316 µM, first compound 10 µM): 36.1%
viability, T/C [22]: 95.8%
viability, T/C (second compound 1 µM, first compound 0.1 µM): 86.3%
viability, T/C [24]: 73.6%
viability, T/C (second compound 1 µM, first compound 1 µM): 57.4%
viability, T/C (second compound 1 µM, first compound 3.16 µM): 55%
viability, T/C (second compound 1 µM, first compound 10 µM): 39.7%
viability, T/C [28]: 77.4%
viability, T/C (second compound 3.16 µM, first compound 0.1 µM): 85.1%
viability, T/C [30]: 78.8%
viability, T/C (second compound 3.16 µM, first compound 1 µM): 58.2%
viability, T/C (second compound 3.16 µM, first compound 3.16 µM): 49.7%
viability, T/C (second compound 3.16 µM, first compound 10 µM): 37%
viability, T/C [34]: 70.5%
viability, T/C (second compound 10 µM, first compound 0.1 µM): 82%
viability, T/C [36]: 73%
viability, T/C (second compound 10 µM, first compound 1 µM): 52.4%
viability, T/C (second compound 10 µM, first compound 3.16 µM): 43.3%
viability, T/C (second compound 10 µM, first compound 10 µM): 34.4%

Cc1[nH]c2ccccc2c1CCNCc1ccc(/C=C/C(=O)NO)cc1 + Cc1[nH]c2ccc(F)cc2c1-c1nc2c3cccnc3c3ncccc3c2[nH]1
IC50 (second compound 0.0316 µM): > 316 nM
IC50 (second compound 0.1 µM): > 316 nM
IC50 (second compound 0.316 µM): > 316 nM
IC50 (second compound 1 µM): > 316 nM
IC50 (second compound 3.16 µM): > 316 nM
IC50 (second compound 10 µM): > 316 nM
viability, T/C [1]: 113%
viability, T/C [2]: 92.7%
viability, T/C [3]: 110%
viability, T/C [4]: 98.6%
viability, T/C [5]: 101%
viability, T/C [6]: 102%
viability, T/C [7]: 127%
viability, T/C [8]: 108%
viability, T/C [9]: 102%
viability, T/C [10]: 93%
viability, T/C [11]: 111%
viability, T/C [12]: 94%
viability, T/C [13]: 96.6%
viability, T/C [14]: 97.2%
viability, T/C [15]: 121%
viability, T/C [16]: 105%
viability, T/C [17]: 115%
viability, T/C [18]: 98.9%
viability, T/C [19]: 74.5%
viability, T/C [20]: 93.9%
viability, T/C [21]: 114%
viability, T/C [22]: 112%
viability, T/C [23]: 103%
viability, T/C [24]: 111%
viability, T/C [25]: 64.2%
viability, T/C [26]: 73.7%
viability, T/C [27]: 68.2%
viability, T/C [28]: 73.9%
viability, T/C [29]: 75.2%
viability, T/C [30]: 78.9%
viability, T/C [31]: 52.1%
viability, T/C [32]: 66.2%
viability, T/C [33]: 64.7%
viability, T/C [34]: 65.7%
viability, T/C [35]: 61.1%
viability, T/C [36]: 67.6%

CC[C@@]1(O)C(=O)OCc2c1cc1n(c2=O)Cc2cc3c(CN(C)C)c(O)ccc3nc2-1 + CN(C)c1ccc(Nc2c3ccc(NC(=O)CCN4CCCC4)cc3nc3cc(NC(=O)CCN4CCCC4)ccc23)cc1
IC50 (second compound 0.0316 µM): 93.9 nM
IC50 (second compound 0.1 µM): > 316 nM
IC50 (second compound 0.316 µM): 89.9 nM
IC50 (second compound 1 µM): 135 nM
IC50 (second compound 3.16 µM): 85.3 nM
IC50 (second compound 10 µM): 175 nM
viability, T/C [1]: 99.1%
viability, T/C [2]: 95.8%
viability, T/C [3]: 96%
viability, T/C [4]: 76%
viability, T/C [5]: 47.3%
viability, T/C [6]: 49.7%
viability, T/C [7]: 87.2%
viability, T/C [8]: 104%
viability, T/C [9]: 98%
viability, T/C [10]: 64.3%
viability, T/C [11]: 50.9%
viability, T/C [12]: 48.7%
viability, T/C [13]: 90.9%
viability, T/C [14]: 78.6%
viability, T/C [15]: 95.2%
viability, T/C [16]: 65.1%
viability, T/C [17]: 48.3%
viability, T/C [18]: 48.6%
viability, T/C [19]: 96.8%
viability, T/C [20]: 92.9%
viability, T/C [21]: 78.6%
viability, T/C [22]: 69.8%
viability, T/C [23]: 56.5%
viability, T/C [24]: 35.8%
viability, T/C [25]: 84.1%
viability, T/C [26]: 79.2%
viability, T/C [27]: 87.8%
viability, T/C [28]: 72.5%
viability, T/C [29]: 46.1%
viability, T/C [30]: 46.7%
viability, T/C [31]: 77.5%
viability, T/C [32]: 96.3%
viability, T/C [33]: 91.8%
viability, T/C [34]: 69.8%
viability, T/C [35]: 61.4%
viability, T/C [36]: 40.3%
